Measured values published in patent publication US10597388B2, “Pyridazinone herbicides” (FMC CORPORATION, priority 2014, dated 2020).

How the values were obtained:
Experiment in all cases: Test E greenhouse herbicide test, pre- and postemergence
Format in all cases: in vivo
[1] = system: barnyardgrass (Echinochloa crus-galli)
In short: (§1)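 Visual rating vs untreated controls, 0 = no effect, 100 = complete control, after 14–21 d greenhouse. Pre: seeded silt loam treated with surfactant-containing solvent formulation. Post: 1–4-leaf plants (2–18 cm) in peat/vermiculite medium.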

[2] = system: beggarticks (hairy beggarticks, Bidens pilosa)
In short: as §1

corn (Zea mays) = system: corn (Zea mays)
In short: as §1

[3] = system: crabgrass, Brazilian (Brazilian crabgrass, Digitaria horizontalis)
In short: as §1

[4] = system: field bindweed (Convolvulus arvensis)
In short: as §1

[5] = system: goosegrass (Eleusine indica); conditions: Preemergence
In short: as §1

[6] = system: lambsquarters (Chenopodium album); conditions: Preemergence
In short: as §1

[7] = system: nutsedge, yellow (yellow nutsedge, Cyperus esculentus); conditions: Preemergence
In short: as §1

[8] = system: panicum, fall (fall panicum, Panicum dichotomiflorum)
In short: as §1

[9] = system: ragweed (common ragweed, Ambrosia elatior)
In short: as §1

[10] = system: sandbur (southem sandbur, Cenchrus echinatus)
In short: as §1

[11] = system: surinam grass (Brachiaria decumbens); conditions: Preemergence
In short: as §1

[12] = system: waterhemp (common waterhemp, Amaranthus rudis)
In short: as §1

[13] = 62 g ai/ha, Postemergence, scale 0 to 100 (0 no effect, 100 complete control)
[14] = 62 g ai/ha, Preemergence, scale 0 to 100 (0 no effect, 100 complete control)
[15] = 125 g ai/ha, Postemergence, scale 0 to 100 (0 no effect, 100 complete control)
[16] = 250 g ai/ha, Postemergence, scale 0 to 100 (0 no effect, 100 complete control)
[17] = Postemergence, 16 g ai/ha, visual, scale 0 no effect to 100 complete control
[18] = Postemergence, 31 g ai/ha, visual, scale 0 no effect to 100 complete control
[19] = Preemergence, 16 g ai/ha, scale 0 to 100, 0 no effect, 100 complete control
[20] = Preemergence, 31 g ai/ha, scale 0 to 100, 0 no effect, 100 complete control
[21] = Preemergence, 125 g ai/ha, visual, scale 0 no effect to 100 complete control
[22] = Preemergence, 250 g ai/ha, visual, scale 0 no effect to 100 complete control
[23] = 62 g ai/ha, scale 0 to 100 (0 no effect, 100 complete control)
[24] = 16 g ai/ha, scale 0 to 100, 0 no effect, 100 complete control
[25] = 31 g ai/ha, scale 0 to 100, 0 no effect, 100 complete control
[26] = 125 g ai/ha, visual, scale 0 no effect to 100 complete control
[27] = 250 g ai/ha, visual, scale 0 no effect to 100 complete control
[28] = 125 g ai/ha, scale 0 to 100 (0 no effect, 100 complete control)
[29] = 125 g ai/ha, Preemergence, scale 0 to 100 (0 no effect, 100 complete control)

SMILES: Cc1cc(C)c2sc(C)c(-c3c(O)c(C)nn(C)c3=O)c2c1 [Compound 2, 5-hydroxy-2,6-dimethyl-4-(2,5,7-trimethylbenzo[b]thien-3-yl)-3(2H)-pyridazinone]
- Plant response rating, Barnyardgrass [1, 13]: 25
- Plant response rating, Barnyardgrass [1, 14]: 0
- Plant response rating, Barnyardgrass [1, 15]: 30
- Plant response rating, Barnyardgrass [1, 16]: 35
- Plant response rating, Barnyardgrass [1, 17]: 20
- Plant response rating, Barnyardgrass [1, 18]: 20
- Plant response rating, Barnyardgrass [1, 19]: 0
- Plant response rating, Barnyardgrass [1, 20]: 0
- Plant response rating, Barnyardgrass [1, 21]: 25
- Plant response rating, Barnyardgrass [1, 22]: 70
- Plant response rating, Beggarticks [2, 13]: 100
- Plant response rating, Beggarticks [2, 14]: 100
- Plant response rating, Beggarticks [2, 15]: 100
- Plant response rating, Beggarticks [2, 16]: 100
- Plant response rating, Beggarticks [2, 17]: 85
- Plant response rating, Beggarticks [2, 18]: 95
- Plant response rating, Beggarticks [2, 19]: 90
- Plant response rating, Beggarticks [2, 20]: 100
- Plant response rating, Beggarticks [2, 21]: 100
- Plant response rating, Beggarticks [2, 22]: 100
- Plant response rating, Corn (corn (Zea mays); [13]): 0
- Plant response rating, Corn (corn (Zea mays); [14]): 0
- Plant response rating, Corn (corn (Zea mays); [15]): 5
- Plant response rating, Corn (corn (Zea mays); [16]): 5
- Plant response rating, Corn (corn (Zea mays); [17]): 0
- Plant response rating, Corn (corn (Zea mays); [18]): 0
- Plant response rating, Corn (corn (Zea mays); [19]): 0
- Plant response rating, Corn (corn (Zea mays); [20]): 0
- Plant response rating, Corn (corn (Zea mays); [21]): 0
- Plant response rating, Corn (corn (Zea mays); [22]): 0
- Plant response rating, Crabgrass, Brazil [3, 13]: 0
- Plant response rating, Crabgrass, Brazil [3, 14]: 60
- Plant response rating, Crabgrass, Brazil [3, 15]: 10
- Plant response rating, Crabgrass, Brazil [3, 16]: 15
- Plant response rating, Crabgrass, Brazil [3, 17]: 0
- Plant response rating, Crabgrass, Brazil [3, 18]: 10
- Plant response rating, Crabgrass, Brazil [3, 19]: 0
- Plant response rating, Crabgrass, Brazil [3, 20]: 35
- Plant response rating, Crabgrass, Brazil [3, 21]: 50
- Plant response rating, Crabgrass, Brazil [3, 22]: 100
- Plant response rating, Field Bindweed [4, 13]: 65
- Plant response rating, Field Bindweed [4, 14]: 15
- Plant response rating, Field Bindweed [4, 15]: 75
- Plant response rating, Field Bindweed [4, 16]: 80
- Plant response rating, Field Bindweed [4, 17]: 60
- Plant response rating, Field Bindweed [4, 18]: 60
- Plant response rating, Field Bindweed [4, 19]: 0
- Plant response rating, Field Bindweed [4, 20]: 0
- Plant response rating, Field Bindweed [4, 21]: 35
- Plant response rating, Field Bindweed [4, 22]: 70
- Plant response rating, Goosegrass [5, 23]: 5
- Plant response rating, Goosegrass [5, 24]: 0
- Plant response rating, Goosegrass [5, 25]: 0
- Plant response rating, Goosegrass [5, 26]: 25
- Plant response rating, Goosegrass [5, 27]: 25
- Plant response rating, Lambsquarters [6, 23]: 98
- Plant response rating, Lambsquarters [6, 24]: 50
- Plant response rating, Lambsquarters [6, 25]: 100
- Plant response rating, Lambsquarters [6, 26]: 98
- Plant response rating, Lambsquarters [6, 27]: 100
- Plant response rating, Nutsedge, Yellow [7, 23]: 35
- Plant response rating, Nutsedge, Yellow [7, 28]: 65
- Plant response rating, Nutsedge, Yellow [7, 24]: 0
- Plant response rating, Nutsedge, Yellow [7, 25]: 0
- Plant response rating, Nutsedge, Yellow [7, 27]: 70
- Plant response rating, Panicum, Fall [8, 13]: 70
- Plant response rating, Panicum, Fall [8, 14]: 95
- Plant response rating, Panicum, Fall [8, 15]: 85
- Plant response rating, Panicum, Fall [8, 29]: 98
- Plant response rating, Panicum, Fall [8, 16]: 90
- Plant response rating, Panicum, Fall [8, 17]: 60
- Plant response rating, Panicum, Fall [8, 18]: 70
- Plant response rating, Panicum, Fall [8, 19]: 75
- Plant response rating, Panicum, Fall [8, 20]: 85
- Plant response rating, Panicum, Fall [8, 22]: 100
- Plant response rating, Ragweed [9, 14]: 75
- Plant response rating, Ragweed [9, 29]: 98
- Plant response rating, Ragweed [9, 19]: 20
- Plant response rating, Ragweed [9, 20]: 35
- Plant response rating, Ragweed [9, 22]: 98
- Plant response rating, Sandbur [10, 13]: 15
- Plant response rating, Sandbur [10, 14]: 15
- Plant response rating, Sandbur [10, 15]: 20
- Plant response rating, Sandbur [10, 29]: 70
- Plant response rating, Sandbur [10, 16]: 30
- Plant response rating, Sandbur [10, 17]: 5
- Plant response rating, Sandbur [10, 18]: 10
- Plant response rating, Sandbur [10, 19]: 0
- Plant response rating, Sandbur [10, 20]: 15
- Plant response rating, Sandbur [10, 22]: 75
- Plant response rating, Surinam Grass [11, 23]: 75
- Plant response rating, Surinam Grass [11, 28]: 90
- Plant response rating, Surinam Grass [11, 24]: 5
- Plant response rating, Surinam Grass [11, 25]: 35
- Plant response rating, Surinam Grass [11, 27]: 95
- Plant response rating, Waterhemp [12, 13]: 75
- Plant response rating, Waterhemp [12, 14]: 80
- Plant response rating, Waterhemp [12, 15]: 75
- Plant response rating, Waterhemp [12, 29]: 85
- Plant response rating, Waterhemp [12, 16]: 90
- Plant response rating, Waterhemp [12, 17]: 70
- Plant response rating, Waterhemp [12, 18]: 70
- Plant response rating, Waterhemp [12, 19]: 65
- Plant response rating, Waterhemp [12, 20]: 65
- Plant response rating, Waterhemp [12, 22]: 98

SMILES: CC(=O)Oc1c(C)nn(C)c(=O)c1-c1c(C)cc(C)c2ccccc12 [Compound 99]
- Plant response rating, Barnyardgrass [1, 13]: 40
- Plant response rating, Barnyardgrass [1, 15]: 50
- Plant response rating, Barnyardgrass [1, 17]: 40
- Plant response rating, Barnyardgrass [1, 18]: 30
- Plant response rating, Beggarticks [2, 13]: 100
- Plant response rating, Beggarticks [2, 15]: 95
- Plant response rating, Beggarticks [2, 17]: 70
- Plant response rating, Beggarticks [2, 18]: 80
- Plant response rating, Corn (corn (Zea mays); [13]): 0
- Plant response rating, Corn (corn (Zea mays); [15]): 0
- Plant response rating, Corn (corn (Zea mays); [17]): 0
- Plant response rating, Corn (corn (Zea mays); [18]): 0
- Plant response rating, Crabgrass, Brazil [3, 13]: 10
- Plant response rating, Crabgrass, Brazil [3, 15]: 20
- Plant response rating, Crabgrass, Brazil [3, 17]: 5
- Plant response rating, Crabgrass, Brazil [3, 18]: 10
- Plant response rating, Field Bindweed [4, 13]: 70
- Plant response rating, Field Bindweed [4, 15]: 80
- Plant response rating, Field Bindweed [4, 17]: 50
- Plant response rating, Field Bindweed [4, 18]: 60
- Plant response rating, Panicum, Fall [8, 13]: 50
- Plant response rating, Panicum, Fall [8, 15]: 70
- Plant response rating, Panicum, Fall [8, 17]: 20
- Plant response rating, Panicum, Fall [8, 18]: 30
- Plant response rating, Ragweed [9, 13]: 80
- Plant response rating, Ragweed [9, 15]: 90
- Plant response rating, Ragweed [9, 17]: 50
- Plant response rating, Ragweed [9, 18]: 75
- Plant response rating, Sandbur [10, 15]: 40
- Plant response rating, Sandbur [10, 17]: 20
- Plant response rating, Sandbur [10, 18]: 30
- Plant response rating, Waterhemp [12, 15]: 75
- Plant response rating, Waterhemp [12, 17]: 65
- Plant response rating, Waterhemp [12, 18]: 45

SMILES: Cc1nn(C)c(=O)c(-c2cccc3ccc(Br)cc23)c1O [Compound 126]
- Plant response rating, Barnyardgrass [1, 13]: 50
- Plant response rating, Barnyardgrass [1, 15]: 40
- Plant response rating, Barnyardgrass [1, 16]: 30
- Plant response rating, Barnyardgrass [1, 18]: 40
- Plant response rating, Beggarticks [2, 13]: 100
- Plant response rating, Beggarticks [2, 15]: 100
- Plant response rating, Beggarticks [2, 16]: 100
- Plant response rating, Beggarticks [2, 18]: 100
- Plant response rating, Corn (corn (Zea mays); [13]): 10
- Plant response rating, Corn (corn (Zea mays); [15]): 5
- Plant response rating, Corn (corn (Zea mays); [16]): 5
- Plant response rating, Corn (corn (Zea mays); [18]): 0
- Plant response rating, Crabgrass, Brazil [3, 13]: 25
- Plant response rating, Crabgrass, Brazil [3, 15]: 40
- Plant response rating, Crabgrass, Brazil [3, 16]: 50
- Plant response rating, Crabgrass, Brazil [3, 18]: 10
- Plant response rating, Field Bindweed [4, 13]: 90
- Plant response rating, Field Bindweed [4, 15]: 95
- Plant response rating, Field Bindweed [4, 16]: 100
- Plant response rating, Field Bindweed [4, 18]: 85
- Plant response rating, Panicum, Fall [8, 13]: 35
- Plant response rating, Panicum, Fall [8, 15]: 30
- Plant response rating, Panicum, Fall [8, 16]: 35
- Plant response rating, Panicum, Fall [8, 18]: 10
- Plant response rating, Ragweed [9, 13]: 80
- Plant response rating, Ragweed [9, 15]: 100
- Plant response rating, Ragweed [9, 16]: 100
- Plant response rating, Ragweed [9, 18]: 70
- Plant response rating, Sandbur [10, 15]: 40
- Plant response rating, Sandbur [10, 16]: 40
- Plant response rating, Sandbur [10, 18]: 0
- Plant response rating, Waterhemp [12, 15]: 90
- Plant response rating, Waterhemp [12, 16]: 90
- Plant response rating, Waterhemp [12, 18]: 75
